Reference: EP4671247A1, “SUBSTITUTED PYRAZOLOPYRIMIDINE COMPOUND AND PHARMACEUTICAL USE THEREOF” (Japan Tobacco Inc., priority 2023, dated 2024)
Like-named read-outs stand apart in the source and are kept apart here.

Target: T1, NLRP3 inflammasome (Homo sapiens, UniProt Q96P20)
T1 construct: host or cells: THP1-Null cells (PMA-differentiated, LPS-primed, nigericin-stimulated)
Experiment: Evaluation of NLRP3 inflammasome inhibitory activity (inhibition of IL-1β production in LPS/Nigericin-stimulated THP1-Null cells, AlphaLISA)
Type: cell-based
Conditions: for IC50: PMA, 1 µg/mL Lipopolysaccharides 3 hours, Nigericin 7.5 µmol/L 1.5 hours; for inhibition at 24 µM: test compound at 24 µM; for inhibition at 2.4 µM: test compound at 2.4 µM
Procedure: The NLRP3 inflammasome inhibitory activity of test compounds were evaluated on the basis of the inhibitory activity of the IL-1β production in THP1-Null cells (Product Number: thp-null, InvivoGen).
The supernatant of the culture was removed, and thereto was added media for assay (25 µL/well) containing 1 µg/mL Lipopolysaccharides (Product Number: L2654, Sigma-Aldrich (registered trademark)). […] The supernatant of the culture was removed. […] A solution containing a test compound (20 µL/well) was added to test compound-setting wells. […] The supernatant of the culture was cryonically stored (set at -20°C) until measurement of IL-1β.
The amount of IL-1β in the culture supernatant was quantitated with AlphaLISA (registered trademark) Human IL-1β Detection Kit (Product Number: AL220C, Perkin Elmer). Fluorescence intensity was measured with a microplate reader EnSpier (Model number: 2300-00J, Perkin Elmer) or EnSight (Model number: HH34000000, Perkin Elmer) according to procedure manuals attached thereto. Inhibition rates of the test compound-setting wells were calculated on the basis of 100% for the blank-setting wells and 0% for the control-setting wells.

[1] = IL-1β production in THP1-Null cells
[2] = IL-1β production in THP1-Null cells, read-out: IC50

T1 sequence (Q96P20 whole entry): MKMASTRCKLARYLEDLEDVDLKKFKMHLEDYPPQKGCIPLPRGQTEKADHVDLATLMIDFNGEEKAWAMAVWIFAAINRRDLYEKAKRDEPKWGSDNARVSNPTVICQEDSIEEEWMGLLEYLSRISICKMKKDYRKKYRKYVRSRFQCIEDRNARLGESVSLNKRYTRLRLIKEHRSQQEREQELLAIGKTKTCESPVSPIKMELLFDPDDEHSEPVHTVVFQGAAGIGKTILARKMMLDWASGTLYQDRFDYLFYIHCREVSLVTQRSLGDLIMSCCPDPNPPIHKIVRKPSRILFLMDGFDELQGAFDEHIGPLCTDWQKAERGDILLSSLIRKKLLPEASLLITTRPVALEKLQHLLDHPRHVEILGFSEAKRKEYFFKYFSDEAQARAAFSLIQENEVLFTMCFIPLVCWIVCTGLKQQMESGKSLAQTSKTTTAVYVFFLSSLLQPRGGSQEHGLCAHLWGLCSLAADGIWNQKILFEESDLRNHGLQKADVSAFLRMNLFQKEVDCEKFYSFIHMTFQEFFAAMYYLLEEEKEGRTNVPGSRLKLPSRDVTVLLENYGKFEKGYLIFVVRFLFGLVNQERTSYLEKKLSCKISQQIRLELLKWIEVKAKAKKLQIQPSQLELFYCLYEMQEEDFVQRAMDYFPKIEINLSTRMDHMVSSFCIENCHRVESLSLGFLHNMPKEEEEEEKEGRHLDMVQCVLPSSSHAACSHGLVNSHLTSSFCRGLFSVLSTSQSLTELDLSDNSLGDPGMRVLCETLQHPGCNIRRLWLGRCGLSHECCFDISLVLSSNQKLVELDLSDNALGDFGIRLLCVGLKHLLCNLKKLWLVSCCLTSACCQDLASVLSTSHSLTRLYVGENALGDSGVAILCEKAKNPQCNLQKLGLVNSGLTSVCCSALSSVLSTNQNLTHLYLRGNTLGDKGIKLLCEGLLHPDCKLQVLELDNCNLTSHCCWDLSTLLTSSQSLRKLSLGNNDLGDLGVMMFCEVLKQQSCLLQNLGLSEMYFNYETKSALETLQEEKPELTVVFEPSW

Molecule `Cc1cc(C(C)(F)F)cc(C)c1-n1cc2c(=O)[nH]c(C3(F)CCOC3)nc2n1` (single isomer, unassigned) [Example 130] has an IC50 [1] of 240 nM.

Molecule `Cc1cc(C(C)(F)F)cc(C)c1-n1cc2c(=O)[nH]c([C@@H]3C[C@H]3F)nc2n1` (single isomer, unassigned) [Example 146] has an IC50 [2] of 15 nM.

For `Cc1cc(C(C)(F)F)cc(C)c1-n1cc2c(=O)[nH]c([C@H]3C[C@@H]3F)nc2n1` (single isomer, unassigned) [Example 147], the IC50 [2] was 24 nM.

`Cc1cc(C(C)(F)F)cc(C)c1-n1cc2c(=O)[nH]c([C@@H](C)O)nc2n1` (single isomer, unassigned) [Example 154] was tested, and the IC50 [2] was 25 nM.

Molecule `Cc1cc(C(C)(F)F)cc(C)c1-n1cc2c(=O)[nH]c([C@H](C)O)nc2n1` (single isomer, unassigned) [Example 155] has an IC50 [2] of 610 nM.

`Cc1cc(C2CC2)cc(C)c1-n1cc2c(=O)[nH]c(C(C)O)nc2n1` (single isomer, unassigned) [Example 156] showed an IC50 [1] of 13 nM.

`Cc1cc(C2CC2)cc(C)c1-n1cc2c(=O)[nH]c(C(C)O)nc2n1` (single isomer, unassigned) [Example 157] gave an IC50 [1] of 340 nM.

`Cc1cc(OC(F)F)cc(C)c1-n1cc2c(=O)[nH]c([C@@H](C)O)nc2n1` (single isomer, unassigned) [Example 165] was tested, and the IC50 [2] was 75 nM.

Molecule `Cc1cc(OC(F)F)cc(C)c1-n1cc2c(=O)[nH]c([C@H](C)O)nc2n1` (single isomer, unassigned) [Example 166] has an IC50 [2] of 1300 nM.

In the case of `Cc1cc(C2CC2)cc(C)c1-n1cc2c(=O)[nH]c(C(O)C(F)F)nc2n1` (single isomer, unassigned) [Example 169], the IC50 [1] is reported as 26 nM.

`Cc1cc(C2CC2)cc(C)c1-n1cc2c(=O)[nH]c(C(O)C(F)F)nc2n1` (single isomer, unassigned) [Example 170] showed an IC50 [1] of 510 nM.

`Cc1cc(OC(F)F)cc(C)c1-n1cc2c(=O)[nH]c([C@@H]3C[C@H]3F)nc2n1` (single isomer, unassigned) [Example 172] gave an IC50 [1] of 8 nM.

`Cc1cc(OC(F)F)cc(C)c1-n1cc2c(=O)[nH]c(C3CC3F)nc2n1` (single isomer, unassigned) [Example 173] was tested, and the IC50 [1] was 15 nM.

Molecule `Cc1cc(OC(F)F)cc(C)c1-n1cc2c(=O)[nH]c(C3(O)CCOCC3F)nc2n1` (single isomer, unassigned) [Example 174] has an IC50 [2] of 30 nM.

In the case of `Cc1cc(OC(F)F)cc(C)c1-n1cc2c(=O)[nH]c(C3CCOCC3F)nc2n1` (single isomer, unassigned) [Example 176], the IC50 [1] is reported as 75 nM.

In the case of `Cc1cc(OC(F)F)cc(C)c1-n1cc2c(=O)[nH]c(C3CCOCC3F)nc2n1` (single isomer, unassigned) [Example 177], the IC50 [1] is reported as 24 nM.

For `Cc1cc(C2CC2)cc(C)c1-n1cc2c(=O)[nH]c(C3CCOCCO3)nc2n1` (single isomer, unassigned) [Example 178, 2-(4-cyclopropyl-2,6-dimethylphenyl)-6-(1,4-dioxepan-5-yl)-2,5-dihydro-4H-pyrazolo[3,4-d]pyrimidin-4-one], the IC50 [2] was 11 nM.

Work on `Cc1cc(C2CC2)cc(C)c1-n1cc2c(=O)[nH]c(C3CCOCCO3)nc2n1` (single isomer, unassigned) [Example 179, 2-(4-cyclopropyl-2,6-dimethylphenyl)-6-(1,4-dioxepan-5-yl)-2,5-dihydro-4H-pyrazolo[3,4-d]pyrimidin-4-one] yielded an IC50 [2] of 51 nM.

`Cc1cc(OC(F)F)cc(C)c1-n1cc2c(=O)[nH]c(C3COCC3F)nc2n1` (single isomer, unassigned) [Example 182] showed an IC50 [1] of 8 nM.

With `Cc1cc(OC(F)F)cc(C)c1-n1cc2c(=O)[nH]c(C3COCC3F)nc2n1` (single isomer, unassigned) [Example 183] the IC50 [1] was 35 nM.

`Cc1cc(C(C)(F)F)cc(C)c1-n1cc2c(=O)[nH]c(C3CCOCCO3)nc2n1` (single isomer, unassigned) [Example 187] was tested, and the IC50 [1] was 67 nM.

`Cc1cc(C(C)(F)F)cc(C)c1-n1cc2c(=O)[nH]c(C3CCOCCO3)nc2n1` (single isomer, unassigned) [Example 188] was tested, and the IC50 [1] was 190 nM.

With `Cc1cc(OC(F)F)cc(C)c1-n1cc2c(=O)[nH]c(C3CCOCCO3)nc2n1` (single isomer, unassigned) [Example 193] the IC50 [1] was 27 nM.

Molecule `Cc1cc(OC(F)F)cc(C)c1-n1cc2c(=O)[nH]c(C3CCOCCO3)nc2n1` (single isomer, unassigned) [Example 194] has an IC50 [1] of 100 nM.

`Cc1ccccc1-n1cc2c(=O)[nH]c(C3CCCC3)nc2n1` [Example 1] was tested, and the IC50 [2] was 2300 nM.

`Cc1ccccc1-n1cc2c(=O)[nH]c(C3=CCCC3)nc2n1` [Example 2] was tested, and the IC50 [2] was 1300 nM.

`Cc1ccc(-n2cc3c(=O)[nH]c(C4CC4)nc3n2)c(C)c1` [Example 3] was tested, and the IC50 [2] was 240 nM.

Molecule `Cc1ccc(-n2cc3c(=O)[nH]c(C)nc3n2)c(C)c1` [Example 4] has an IC50 [2] of 540 nM.

Work on `COCc1nc2nn(-c3ccc(C)cc3C)cc2c(=O)[nH]1` [Example 5] yielded an IC50 [2] of 580 nM.

Work on `Cc1ccc(-n2cc3c(=O)[nH]c(CC(C)C)nc3n2)c(C)c1` [Example 6] yielded an IC50 [2] of 430 nM.

Molecule `Cc1ccc(-n2cc3c(=O)[nH]c(C(F)(F)F)nc3n2)c(C)c1` [Example 7] has an inhibition at 30 µM (test compound at 30 µM, IL-1β production in THP1-Null cells) of 44%.

Work on `CCc1nc2nn(-c3ccc(C)cc3C)cc2c(=O)[nH]1` [Example 8] yielded an IC50 [2] of 230 nM.

Work on `COCCc1nc2nn(-c3ccc(C)cc3C)cc2c(=O)[nH]1` [Example 9] yielded an IC50 [2] of 1100 nM.

For `Cc1ccc(-n2cc3c(=O)[nH]c(C(F)F)nc3n2)c(C)c1` [Example 10], the IC50 [2] was 13000 nM.

For `CCOc1nc(C)nc2nn(-c3ccc(C)cc3C)cc12` [Example 11], the inhibition at 24 µM [1] was 43%.

With `COc1nc(C)nc2nn(-c3ccc(C)cc3C)cc12` [Example 12] the inhibition at 24 µM [1] was 26%.

`Cc1ccc(-n2cc3c(=O)n(C)c(C)nc3n2)c(C)c1` [Example 13, 2-(2,4-dimethylphenyl)-5,6-dimethyl-2,5-dihydro-4H-pyrazolo[3,4-d]pyrimidin-4-one] showed an inhibition at 24 µM [1] of 3%.

With `COC(=O)Cn1c(C)nc2nn(-c3ccc(C)cc3C)cc2c1=O` [Example 14] the inhibition at 2.4 µM [1] was -13%.

For `Cc1ccc(-n2cc3c(=O)n(CC(=O)O)c(C)nc3n2)c(C)c1` [Example 15], the inhibition at 2.4 µM [1] was -3%.

With `Cc1ccc(-n2cc3c(=O)n(CC(=O)N(C)C)c(C)nc3n2)c(C)c1` [Example 16] the inhibition at 2.4 µM [1] was -14%.

`CNC(=O)Cn1c(C)nc2nn(-c3ccc(C)cc3C)cc2c1=O` [Example 17] showed an inhibition at 2.4 µM [1] of -15%.

In the case of `Cc1nc2nn(-c3c(C)cc(Br)cc3C)cc2c(=O)[nH]1` [Example 18], the IC50 (IC50, IL-1β production in THP1-Null cells) is reported as 220 nM.

With `Cc1nc2nn(-c3c(C)cc(C4CC4)cc3C)cc2c(=O)[nH]1` [Example 19] the IC50 [2] was 170 nM.

Work on `Cc1cc(C2CC2)cc(F)c1-n1cc2c(=O)[nH]c(C3CC3)nc2n1` [Example 20] yielded an IC50 [2] of 13 nM.

In the case of `Cc1cc(C2CC2)cc(C)c1-n1cc2c(=O)[nH]c(C3CC3)nc2n1` [Example 21], the IC50 [2] is reported as 12 nM.

`Cc1cc(C2CC2)cc(C)c1-n1cc2c(=O)[nH]c(C3CCC3)nc2n1` [Example 22] showed an IC50 [2] of 12 nM.

With `CCc1nc2nn(-c3c(C)cc(C4CC4)cc3C)cc2c(=O)[nH]1` [Example 23] the IC50 [2] was 24 nM.

For `Cc1cc(C2CC2)ccc1-n1cc2c(=O)[nH]c(C3CC3)nc2n1` [Example 24], the IC50 [2] was 47 nM.

In the case of `COCc1cc(C2CC2)ccc1-n1cc2c(=O)[nH]c(C3CC3)nc2n1` [Example 25], the IC50 [2] is reported as 44 nM.

`COc1cc(C2CC2)ccc1-n1cc2c(=O)[nH]c(C3CC3)nc2n1` [Example 26] gave an IC50 [2] of 76 nM.

Work on `COCc1nc2nn(-c3c(C)cc(Br)cc3C)cc2c(=O)[nH]1` [Example 27] yielded an IC50 [2] of 29 nM.

With `Cc1cc(Br)cc(C)c1-n1cc2c(=O)[nH]c(C3(C#N)CC3)nc2n1` [Example 30] the IC50 [2] was 280 nM.

For `Cc1ccc(-n2cc3c(=O)[nH]c(C4CCOCC4)nc3n2)c(C)c1` [Example 33], the IC50 [2] was 68 nM.

`Cc1ccc(-n2cc3c(=O)[nH]c(CCCS(C)(=O)=O)nc3n2)c(C)c1` [Example 37] gave an IC50 [2] of 1100 nM.

With `Cc1ccc(-n2cc3c(=O)[nH]c(CN4CCOCC4)nc3n2)c(C)c1` [Example 38] the inhibition at 2.4 µM [1] was 40%.

Work on `Cc1cc(C2CC2)cc(C)c1-n1cc2c(=O)[nH]c(C3COC3)nc2n1` [Example 39] yielded an IC50 [2] of 16 nM.

Molecule `Cc1cc(C2CC2)cc(C)c1-n1cc2c(=O)[nH]c(C3CCOCC3)nc2n1` [Example 42] has an IC50 [2] of 4 nM.

Molecule `COCc1nc2nn(-c3c(C)cc(C4CC4)cc3C)cc2c(=O)[nH]1` [Example 43] has an IC50 [2] of 42 nM.

`Cc1cc(C2CC2)cc(C)c1-n1cc2c(=O)[nH]c(C3(C)COC3)nc2n1` [Example 44] gave an IC50 [2] of 47 nM.

Molecule `Cc1cc(C2CC2)cc(C)c1-n1cc2c(=O)[nH]c(C3CC(F)(F)C3)nc2n1` [Example 45] has an IC50 [2] of 7 nM.

Molecule `Cc1cc(Br)cc(C)c1-n1cc2c(=O)[nH]c(COCC3CCOCC3)nc2n1` [Example 46] has an IC50 [2] of 140 nM.

Work on `Cc1cc(C2CC2)cc(C)c1-n1cc2c(=O)[nH]c(COCC3CCOCC3)nc2n1` [Example 47] yielded an IC50 [2] of 180 nM.

`Cc1cc(C2CC2)cc(C)c1-n1cc2c(=O)[nH]c(C3(F)CC3)nc2n1` [Example 48] gave an IC50 [2] of 23 nM.

`Cc1cc(C2CC2)cc(C)c1-n1cc2c(=O)[nH]c(C34CC(F)(C3)C4)nc2n1` [Example 49] was tested, and the IC50 [2] was 24 nM.
